# Laboratory results from US20020182619A1, “Compositions, kits, and methods for identification, assessment, prevention, and therapy of ovarian cancer” (Millennium Pharmaceuticals, Inc., priority 2000, published 2002).
# Test system: ovarian cell line (OVCAR3)
# Assay: Transcript profiling on nylon arrays of OVCAR3 untreated or treated with LPA, LYS294002, or both
# Format: cell-based
# Description: Nylon arrays were prepared by spotting purified PCR product onto a nylon membrane using a robotic gridding system linked to a sample database. Several thousand clones were spotted on each nylon filter.
# RNA or DNA from cell lines were used for hybridization against the nylon arrays. The RNA or DNA is labeled utilizing an in vitro reverse transcription reaction that contains a radiolabeled nucleotide that is incorporated during the reaction. Hybridization experiments were carried out by combining labeled RNA or DNA samples with nylon filters in a hybridization chamber. Duplicate, independent hybridization experiments were performed to generate transcriptional profiling data. See, Nature Genetics, 21 (1999).
# The level of expression of ˜25,000 potential markers were measured in 4 samples, an untreated ovarian cell line (OVCAR3), OVCAR3 treated with LPA, OVCAR3 treated with LYS294002, and OVCAR3 treated with LPA and LYS294002. LYS294002 is a specific inhibitor of the P13Kinase pathway.
# Table 1 represents the markers that are expressed at least 2.5 fold greater in the OVCAR3 cell line treated with LPA as compared to the untreated cell line (column G). Table 1 also lists the expression value of these potential marker in the 4 samples, untreated OVCAR3, OVCAR3 treated with LPA, OVCAR3 treated with LYS294002, and OVCAR3 treated with LYS294002 and LPA (columns C-F). […]
substance,measurement,setting,value
lysophosphatidic acid [LPA],UPinLPA vs OVCAR3: marker expression in the OVCAR3 cell line treated with LPA as compared to the untreated cell line,"markers of Table 1, quotient of Ave-LPA divided by Ave-OVCAR3",at least 2.5 fold
same,UPinOVCAR3 vs LPA: marker expression in the untreated OVCAR3 cell line as compared to the cell line treated with LPA,"markers of Table 2, quotient of Ave-OVCAR3 divided by Ave-LPA",at least 4 fold
